This passage reports GI50 and TGI results from PubChem BioAssay (NCI).

Several values for one entry are separate records, joined by “and”; a condition that tells them apart may be missing. Equal entries are not always repeated.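 Tested at 5 concentrations; 48 h exposure; 96-well plates; endpoints linearly interpolated, else capped at highest concentration. The concentration for 50% growth inhibition is given as GI50. TGI denotes the concentration required for complete inhibition of growth.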

The first experiment relates to EKVX NSCLC. The experiment is described as follows: DTP human tumour cell line panel, 48 h.
By GI50 is commonly meant the concentration giving 50% growth inhibition. As usually defined, the TGI is the concentration giving total growth inhibition. In the case of `Fc1ccc2[nH]cc(Cc3c[nH]c4ccc(F)cc34)c2c1`, the GI50 is 17.6 µM and the TGI amounted to 41.8 µM.

For `O=C(CCN1CCCC1)Nc1ccc2c(NCc3ccc(F)cc3)c3ccccc3nc2c1`, the GI50 was 0.58 µM and the TGI was determined as 2.3 µM.

Consider `Cc1ccc(C(=O)Nc2ccc(S(=O)(=O)O)c3cc(S(=O)(=O)O)cc(S(=O)(=O)O)c23)cc1NC(=O)c1cccc(N)c1`, for which the total growth inhibition concentration (TGI) was > 100 µM.

As for `Fc1ccc(-c2nc3n(c2-c2ccncc2)CCS3)cc1`, the GI50 is > 25 µM and the TGI was > 25 µM.

`C=C(C)[C@@H]1CC=C(CO)CC1`: the GI50 is > 10 µM; the concentration for total growth inhibition (TGI) was > 10 µM and 1250 µM.

For `N#Cc1ncc(/N=C/c2ccc(N(CCCl)CCCl)cc2)s1`, the GI50 is 42.2 µM and the TGI is > 100 µM.

The next experiment relates to KM12 colon. The experiment is described as follows: DTP human tumour cell line panel, 48 h.
As for `Fc1ccc2[nH]cc(Cc3c[nH]c4ccc(F)cc34)c2c1`, the GI50 was 12 µM and the concentration for total growth inhibition (TGI) was 30.2 µM.

Regarding `O=C(CCN1CCCC1)Nc1ccc2c(NCc3ccc(F)cc3)c3ccccc3nc2c1`, the GI50 is 0.431 µM and the TGI was found to be 1.62 µM.

Regarding `Cc1ccc(C(=O)Nc2ccc(S(=O)(=O)O)c3cc(S(=O)(=O)O)cc(S(=O)(=O)O)c23)cc1NC(=O)c1cccc(N)c1`, the TGI is > 100 µM.

On to `Fc1ccc(-c2nc3n(c2-c2ccncc2)CCS3)cc1`, for which the GI50 is > 25 µM and the TGI was > 25 µM.

For the molecule `C=C(C)[C@@H]1CC=C(CO)CC1`, the GI50 was > 10 µM; the TGI was > 10 µM and 1050 µM.

On to `N#Cc1ncc(/N=C/c2ccc(N(CCCl)CCCl)cc2)s1`, for which the GI50 was 76.5 µM and the TGI was > 100 µM.

For a further experiment, the system named is M14 melanoma. The experiment is described as follows: DTP human tumour cell line panel, 48 h.
Regarding `Fc1ccc2[nH]cc(Cc3c[nH]c4ccc(F)cc34)c2c1`, the GI50 was 20.2 µM and the TGI came to 42.9 µM.

In the case of `O=C(CCN1CCCC1)Nc1ccc2c(NCc3ccc(F)cc3)c3ccccc3nc2c1`, the GI50 was 1.07 µM and the total growth inhibition concentration (TGI) is 2.4 µM.

Consider `Cc1ccc(C(=O)Nc2ccc(S(=O)(=O)O)c3cc(S(=O)(=O)O)cc(S(=O)(=O)O)c23)cc1NC(=O)c1cccc(N)c1`, for which the TGI is > 100 µM.

With `Fc1ccc(-c2nc3n(c2-c2ccncc2)CCS3)cc1`, the GI50 is > 25 µM and the TGI was > 25 µM.

For `C=C(C)[C@@H]1CC=C(CO)CC1`, the GI50 is > 10 µM; the TGI is > 10 µM and 1410 µM.

Take `N#Cc1ncc(/N=C/c2ccc(N(CCCl)CCCl)cc2)s1`: the GI50 was 35.2 µM and the concentration for total growth inhibition (TGI) is > 100 µM.

A further experiment deals with MALME-3M melanoma. The experiment is described as follows: DTP human tumour cell line panel, 48 h.
Take `Fc1ccc2[nH]cc(Cc3c[nH]c4ccc(F)cc34)c2c1`: the GI50 was 16.7 µM and the TGI worked out at 33.8 µM.

For `O=C(CCN1CCCC1)Nc1ccc2c(NCc3ccc(F)cc3)c3ccccc3nc2c1`, the GI50 is 1.11 µM and the TGI came to 2.4 µM.

Regarding `Cc1ccc(C(=O)Nc2ccc(S(=O)(=O)O)c3cc(S(=O)(=O)O)cc(S(=O)(=O)O)c23)cc1NC(=O)c1cccc(N)c1`, the TGI is > 100 µM.

As to `Fc1ccc(-c2nc3n(c2-c2ccncc2)CCS3)cc1`, the GI50 is > 25 µM and the TGI is > 25 µM.

As to `C=C(C)[C@@H]1CC=C(CO)CC1`, the GI50 was > 10 µM; the total growth inhibition concentration (TGI) is > 10 µM and 1080 µM.

As for `N#Cc1ncc(/N=C/c2ccc(N(CCCl)CCCl)cc2)s1`, the GI50 was 30.8 µM and the TGI was > 100 µM.

The next experiment deals with MOLT-4 leukemia. The experiment is described as follows: DTP human tumour cell line panel, 48 h.
Turning to `Fc1ccc2[nH]cc(Cc3c[nH]c4ccc(F)cc34)c2c1`, the GI50 is 1.97 µM and the TGI turned out to be 22.1 µM.

In the case of `O=C(CCN1CCCC1)Nc1ccc2c(NCc3ccc(F)cc3)c3ccccc3nc2c1`, the GI50 is 0.398 µM and the TGI was 2.34 µM.

On to `Cc1ccc(C(=O)Nc2ccc(S(=O)(=O)O)c3cc(S(=O)(=O)O)cc(S(=O)(=O)O)c23)cc1NC(=O)c1cccc(N)c1`, for which the TGI was > 100 µM.

As for `Fc1ccc(-c2nc3n(c2-c2ccncc2)CCS3)cc1`, the GI50 is > 25 µM and the TGI is > 25 µM.

Turning to `C=C(C)[C@@H]1CC=C(CO)CC1`, the GI50 was > 10 µM; the TGI is > 10 µM and 1050 µM.

Regarding `N#Cc1ncc(/N=C/c2ccc(N(CCCl)CCCl)cc2)s1`, the GI50 is 10.6 µM and the TGI is > 100 µM.

For the next experiment, the system named is NCI-H522 lung. The experiment is described as follows: DTP human tumour cell line panel, 48 h.
For `Fc1ccc2[nH]cc(Cc3c[nH]c4ccc(F)cc34)c2c1`, the GI50 is 14.3 µM and the total growth inhibition concentration (TGI) is 36.3 µM.

With `O=C(CCN1CCCC1)Nc1ccc2c(NCc3ccc(F)cc3)c3ccccc3nc2c1`, the GI50 was 0.394 µM and the TGI worked out at 1.75 µM.

`Cc1ccc(C(=O)Nc2ccc(S(=O)(=O)O)c3cc(S(=O)(=O)O)cc(S(=O)(=O)O)c23)cc1NC(=O)c1cccc(N)c1`: the concentration for total growth inhibition (TGI) is > 100 µM.

Regarding `Fc1ccc(-c2nc3n(c2-c2ccncc2)CCS3)cc1`, the GI50 was > 25 µM and the total growth inhibition concentration (TGI) was > 25 µM.

`C=C(C)[C@@H]1CC=C(CO)CC1`: the GI50 was > 10 µM; the TGI is > 10 µM and 1150 µM.

For the molecule `N#Cc1ncc(/N=C/c2ccc(N(CCCl)CCCl)cc2)s1`, the GI50 was 29.8 µM and the TGI was > 100 µM.

For another experiment, the system named is SR leukemia. The experiment is described as follows: DTP human tumour cell line panel, 48 h.
As for `Fc1ccc2[nH]cc(Cc3c[nH]c4ccc(F)cc34)c2c1`, the GI50 was 31.1 µM and the TGI was > 100 µM.

Take `O=C(CCN1CCCC1)Nc1ccc2c(NCc3ccc(F)cc3)c3ccccc3nc2c1`: the concentration for 50% growth inhibition (GI50) is 0.349 µM and the TGI came out at 1.72 µM.

As for `Cc1ccc(C(=O)Nc2ccc(S(=O)(=O)O)c3cc(S(=O)(=O)O)cc(S(=O)(=O)O)c23)cc1NC(=O)c1cccc(N)c1`, the TGI is > 100 µM.

Turning to `Fc1ccc(-c2nc3n(c2-c2ccncc2)CCS3)cc1`, the GI50 is > 25 µM and the TGI is > 25 µM.

Consider `C=C(C)[C@@H]1CC=C(CO)CC1`, for which the GI50 was > 10 µM; the TGI is > 10 µM and 1080 µM.

Consider `N#Cc1ncc(/N=C/c2ccc(N(CCCl)CCCl)cc2)s1`, for which the GI50 was 0.543 µM and the total growth inhibition concentration (TGI) was > 100 µM.

The next experiment relates to SW-620 colon. The experiment is described as follows: DTP human tumour cell line panel, 48 h.
On to `Fc1ccc2[nH]cc(Cc3c[nH]c4ccc(F)cc34)c2c1`, for which the GI50 is 23.7 µM and the TGI turned out to be 58.8 µM.

As for `O=C(CCN1CCCC1)Nc1ccc2c(NCc3ccc(F)cc3)c3ccccc3nc2c1`, the GI50 is 0.353 µM and the TGI was 1.53 µM.

Regarding `Cc1ccc(C(=O)Nc2ccc(S(=O)(=O)O)c3cc(S(=O)(=O)O)cc(S(=O)(=O)O)c23)cc1NC(=O)c1cccc(N)c1`, the TGI is > 100 µM.

As to `Fc1ccc(-c2nc3n(c2-c2ccncc2)CCS3)cc1`, the GI50 was > 25 µM and the TGI is > 25 µM.

The molecule `C=C(C)[C@@H]1CC=C(CO)CC1` yielded a TGI of 1340 µM.

As for `N#Cc1ncc(/N=C/c2ccc(N(CCCl)CCCl)cc2)s1`, the GI50 was 9.69 µM and the TGI is > 100 µM.

A further experiment concerns T-47D breast. The experiment is described as follows: DTP human tumour cell line panel, 48 h.
On to `Fc1ccc2[nH]cc(Cc3c[nH]c4ccc(F)cc34)c2c1`, for which the GI50 is 20 µM and the TGI was 96.9 µM.

`O=C(CCN1CCCC1)Nc1ccc2c(NCc3ccc(F)cc3)c3ccccc3nc2c1`: the GI50 was 0.768 µM and the total growth inhibition concentration (TGI) was 3.22 µM.

On to `Cc1ccc(C(=O)Nc2ccc(S(=O)(=O)O)c3cc(S(=O)(=O)O)cc(S(=O)(=O)O)c23)cc1NC(=O)c1cccc(N)c1`, for which the TGI was > 100 µM.

Take `Fc1ccc(-c2nc3n(c2-c2ccncc2)CCS3)cc1`: the GI50 was 13.3 µM and the TGI was > 25 µM.

Consider `C=C(C)[C@@H]1CC=C(CO)CC1`, for which the TGI is > 10 µM.

Consider `N#Cc1ncc(/N=C/c2ccc(N(CCCl)CCCl)cc2)s1`, for which the GI50 was 6.71 µM and the TGI is > 100 µM.

The subject of another experiment is UO-31 renal. The experiment is described as follows: DTP human tumour cell line panel, 48 h.
On to `Fc1ccc2[nH]cc(Cc3c[nH]c4ccc(F)cc34)c2c1`, for which the GI50 was 13.7 µM and the TGI stood at 33.7 µM.

Take `O=C(CCN1CCCC1)Nc1ccc2c(NCc3ccc(F)cc3)c3ccccc3nc2c1`: the GI50 is 1.33 µM and the TGI came out at 3.09 µM.

In the case of `Cc1ccc(C(=O)Nc2ccc(S(=O)(=O)O)c3cc(S(=O)(=O)O)cc(S(=O)(=O)O)c23)cc1NC(=O)c1cccc(N)c1`, the TGI was > 100 µM.

Regarding `Fc1ccc(-c2nc3n(c2-c2ccncc2)CCS3)cc1`, the GI50 was 8.26 µM and the total growth inhibition concentration (TGI) was > 25 µM.

In the case of `C=C(C)[C@@H]1CC=C(CO)CC1`, the GI50 was > 10 µM; the TGI is > 10 µM and 1050 µM.

Regarding `N#Cc1ncc(/N=C/c2ccc(N(CCCl)CCCl)cc2)s1`, the GI50 is 6.26 µM and the TGI was determined as 30 µM.
